# Test results reported in patent US20230034696A1, “EGFR INHIBITORS” (Hoffmann-La Roche Inc., priority 2019, published 2023).
# Target: T1, EGFR TMLRCS (BaF3-TMLRCS cell line) (Homo sapiens, UniProt P00533, C797S/L858R/T790M)
# T1 construct: host or cells: BaF3 (murine pro-B cells) engineered to express EGFR TMLRCS
# Assay: HTRF Phospho EGFR TMLRCS assay (cellular)
# Type: cell-based
# Settings: BaF3-TMLRCS cells, 4 hours incubation
# Experimental: HTRF Phospho EGFR TMLRCS Assay (Cellular)
# BaF3-TMLRCS cell line were obtained from Crownbio (San Diego, CA, USA). Cells were maintained at 37° C., 5% CO2 in RPMI ATCC (Gibco 31870) + 2 mM Glutamine + 0.5 µg/ml Puromycin supplemented with 10% fetal bovine serum (FBS) (Gibco).
# Cells are transferred as above to Greiner Bio-One, Nr. 784-08 micro-titerplate at 20000 cells/well in 12.5 µl of growth medium/well after the plates had been pre-filled with 12.5 nl of DMSO solutions of the to be tested compound (in dose response) or DMSO only. After spinning the plates at 300 × g for 30 seconds the cells were incubated for 4 hours at 37C, 5% CO2, 95% humidity. The cells were lysed by adding to the compound mix 4 µl/well of the supplemented lysis buffer (Cis-bio, Phospho-EGFR HTRF kit, 64EG1PEH), followed by incubation for 30 min at room temperature with shaking (400 rpm). The plates were then frozen and stored overnight at -80C. […] The lidded plates were then incubated for 4 h at room temperature before reading the fluorescence emission at 616 and 665 nm using an Envision reader (Perkin Elmer). Data was analyzed in similar fashion as above using the normalized ratio of the 665 to 616 signals multiplied by 10000.
# T1 sequence (P00533 25-1210 T790M/C797S/L858R): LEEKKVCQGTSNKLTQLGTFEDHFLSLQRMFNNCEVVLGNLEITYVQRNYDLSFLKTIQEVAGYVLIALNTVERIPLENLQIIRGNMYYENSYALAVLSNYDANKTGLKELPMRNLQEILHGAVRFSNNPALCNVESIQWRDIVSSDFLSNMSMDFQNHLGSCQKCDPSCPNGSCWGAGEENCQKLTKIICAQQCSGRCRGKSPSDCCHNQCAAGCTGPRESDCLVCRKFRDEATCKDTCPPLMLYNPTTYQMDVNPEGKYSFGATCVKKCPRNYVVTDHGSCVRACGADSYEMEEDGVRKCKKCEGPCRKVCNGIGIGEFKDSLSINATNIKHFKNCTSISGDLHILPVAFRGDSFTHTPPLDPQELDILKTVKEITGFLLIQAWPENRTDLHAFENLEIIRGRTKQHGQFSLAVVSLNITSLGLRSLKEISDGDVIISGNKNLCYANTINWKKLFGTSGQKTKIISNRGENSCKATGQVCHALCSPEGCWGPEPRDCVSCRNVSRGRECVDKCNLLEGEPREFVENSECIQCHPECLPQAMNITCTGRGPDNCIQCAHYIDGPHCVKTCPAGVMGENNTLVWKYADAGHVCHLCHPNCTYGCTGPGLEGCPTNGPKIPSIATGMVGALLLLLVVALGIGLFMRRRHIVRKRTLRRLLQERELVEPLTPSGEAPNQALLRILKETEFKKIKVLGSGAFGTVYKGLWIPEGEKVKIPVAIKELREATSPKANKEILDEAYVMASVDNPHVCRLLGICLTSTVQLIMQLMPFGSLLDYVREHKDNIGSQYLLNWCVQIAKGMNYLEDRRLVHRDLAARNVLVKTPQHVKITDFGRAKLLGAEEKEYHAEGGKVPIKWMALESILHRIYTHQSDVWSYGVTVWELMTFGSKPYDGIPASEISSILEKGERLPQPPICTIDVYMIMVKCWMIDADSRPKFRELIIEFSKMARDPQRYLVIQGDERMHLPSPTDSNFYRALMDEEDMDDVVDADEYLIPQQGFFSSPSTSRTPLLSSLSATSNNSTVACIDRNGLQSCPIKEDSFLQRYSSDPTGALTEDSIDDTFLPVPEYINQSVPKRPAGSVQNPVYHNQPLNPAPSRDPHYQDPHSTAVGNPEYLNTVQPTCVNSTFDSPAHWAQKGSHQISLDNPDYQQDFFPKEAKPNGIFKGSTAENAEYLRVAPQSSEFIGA
compound,measurement,value
"O=C(Nc1nccs1)C(c1ncn2c1CCC2)N1Cc2c(Cl)cc(C#Cc3ccc(CN4CCC(CO)CC4)cc3)cc2C1=O (racemic) [Example 1, 2-[4-chloro-6-[2-[4-[[4-(hydroxymethyl)-1-piperidyl]methyl]phenyl]ethynyl]-1-oxo-isoindolin-2-yl]-2-(6,7-dihydro-5H-pyrrolo[1,2-c]imidazol-1-yl)-N-thiazol-2-yl-acetamide]",IC50,3 nM
